The values that follow come from ChEMBL document CHEMBL1152614, “Design, synthesis and evaluation of monovalent ligands for the asialoglycoprotein receptor (ASGP-R)” (Bioorg Med Chem, 2009).

Molecular target in one assay: not listed separately
Kind of assay: Inhibition of [125I]asialoorosomucoid binding to rabbit hepatic ASGPR1. Also on record: species or system Oryctolagus cuniculus.
Broadly, the IC50 is the concentration that inhibits the measured activity by half. Take `OC[C@H]1O[C@@H](O)[C@H](O)[C@@H](O)[C@H]1O` [b-D-GALACTOSE]: the IC50 was determined as 1.7 mM.
Consider `OC[C@H]1O[C@@H](O)[C@H](O)[C@@H](O)[C@@H]1O` [beta-D-Glucose], for which the IC50 worked out at 60 mM. Against the preceding compound, the IC50 is about 35-fold higher.

Another assay concerns the target T1, Asialoglycoprotein receptor 1 (Homo sapiens) (UniProt P07306).
T1 sequence (whole entry): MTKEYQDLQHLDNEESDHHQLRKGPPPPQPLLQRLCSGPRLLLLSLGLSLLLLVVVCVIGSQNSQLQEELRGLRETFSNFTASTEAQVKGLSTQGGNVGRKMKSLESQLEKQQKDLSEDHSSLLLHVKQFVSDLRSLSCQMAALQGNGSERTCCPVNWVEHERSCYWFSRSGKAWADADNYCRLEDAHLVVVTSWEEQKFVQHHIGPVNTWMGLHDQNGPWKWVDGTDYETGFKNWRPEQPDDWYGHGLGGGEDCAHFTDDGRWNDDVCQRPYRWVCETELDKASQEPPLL
Kind of assay: Inhibition of D-GalNAc-PAA binding to human recombinant ASGPR1 carbohydrate recognition domain expressed in Escherichia coli AD494 by competitive solid-phase binding assay relative to D-GalNAc.
`CN1CCN(c2ccc(OCc3cn([C@H]4CO[C@H](CO)[C@H](O)[C@@H]4O)nn3)cc2)CC1`: the Ratio IC50 amounted to 0.9.
For `OC[C@H]1OC[C@H](n2cc(COc3c(F)c(F)c(F)c(F)c3F)nn2)[C@@H](O)[C@H]1O`, the Ratio IC50 stood at 1.4.
Take `O=[N+]([O-])c1ccc(OCc2cn([C@H]3CO[C@H](CO)[C@H](O)[C@@H]3O)nn2)cc1`: the Ratio IC50 turned out to be 0.8.
As to `CC(=O)N[C@H]1C(O)O[C@H](CO)[C@H](O)[C@@H]1O` (some centres not stated), the Ratio IC50 stood at 1.
For `O=S(=O)(Nc1ccc(OCc2cn([C@H]3CO[C@H](CO)[C@H](O)[C@@H]3O)nn2)cc1)C(F)(F)F`, the “Ratio IC50” value is “Insoluble”.
As to `OC[C@H]1OC[C@H](n2cc(COc3ccccc3)nn2)[C@@H](O)[C@H]1O`, the Ratio IC50 came to 1.1.
The same measure, in the same setting: to `[N-]=[N+]=N[C@H]1CO[C@H](CO)[C@H](O)[C@@H]1O` belongs 13.7; to `N#Cc1ccc(OCc2cn([C@H]3CO[C@H](CO)[C@H](O)[C@@H]3O)nn2)cc1`, 0.5.
As to `O=C(O)c1ccc(OCc2cn([C@H]3CO[C@H](CO)[C@H](O)[C@@H]3O)nn2)cc1`, the Ratio IC50 stood at 8.7.

The next assay has as its target T1, Asialoglycoprotein receptor 1 (Homo sapiens). Description: Inhibition of D-GalNAc binding to human recombinant ASGPR1 carbohydrate recognition domain expressed in Escherichia coli AD494 by competitive NMR binding assay relative to D-GalNAc.
Consider `N#Cc1ccc(OCc2cn([C@H]3CO[C@H](CO)[C@H](O)[C@@H]3O)nn2)cc1`, for which the relative binding affinity (RBA) was determined as 1.9.
